In one assay the target is NRAS G12C (Homo sapiens (Human), UniProt P01111+P62937, G12C). The assay can be described thus: Ras-Raf (BRAF RBD) disruption / FRET / MOA assay, NRAS G12C. The conditions noted are these: read-out: IC50* NRAS G12C FRET data. It counts as biochemical. A digest of the protocol: (§1)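 Ras:RAF disruption was scored as a fall in TR-FRET ratio relative to DMSO. Compound ranged in 3-fold steps over 10 points from 30 μM final; incubation ran 3 h at 25° C, detection antibodies a further 1.5 h. Reported as IC50.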
NRAS G12C, sequence (P01111 whole entry G12C): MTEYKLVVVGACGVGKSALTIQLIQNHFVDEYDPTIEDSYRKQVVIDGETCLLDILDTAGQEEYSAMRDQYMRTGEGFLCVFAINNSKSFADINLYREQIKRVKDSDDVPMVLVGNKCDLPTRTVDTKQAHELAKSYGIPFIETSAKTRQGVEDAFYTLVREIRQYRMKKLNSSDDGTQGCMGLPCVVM
NRAS G12C, sequence (P62937 whole entry): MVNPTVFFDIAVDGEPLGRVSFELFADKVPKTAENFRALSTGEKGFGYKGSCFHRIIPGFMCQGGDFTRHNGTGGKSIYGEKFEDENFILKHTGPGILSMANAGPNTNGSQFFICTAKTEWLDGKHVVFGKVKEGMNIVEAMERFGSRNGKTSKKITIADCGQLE

A further assay addresses KRAS G12D (Homo sapiens (Human), UniProt P01116+P62937, G12D). The assay is described as follows: Ras-Raf (BRAF RBD) disruption / FRET / MOA assay, KRAS G12D. Format: biochemical. Conditions: Ras-Raf disruption/FRET/MOA assay; class symbols; read-out: KRAS G12D FRET data IC50. In a few lines:
as §1

For another assay, the target named is K-Ras G12C (Homo sapiens (Human), UniProt P01116+P62937, G12C). The assay can be described thus: Ras-Raf (BRAF RBD) disruption / FRET / MOA assay, KRAS G12C. Format: biochemical. Conditions: KRAS G12C; Ras-Raf disruption/FRET/MOA assay; read-out: IC50* KRAS G12C FRET data. In a few lines: as §1
K-Ras G12C, sequence (P01116-2 other isoform, or with tags, fused parts or gaps G12C): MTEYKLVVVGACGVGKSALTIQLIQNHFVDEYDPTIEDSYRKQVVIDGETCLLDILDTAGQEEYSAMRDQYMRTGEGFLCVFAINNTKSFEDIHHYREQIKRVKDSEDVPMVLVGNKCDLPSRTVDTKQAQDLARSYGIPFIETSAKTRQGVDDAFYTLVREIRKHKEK
K-Ras G12C, sequence (P62937 whole entry): as the sequence (P62937 whole entry) above
Another assay has as its target NRAS Q61K (Homo sapiens (Human), UniProt P01111+P62937, Q61K). The assay can be described thus: Ras-Raf (BRAF RBD) disruption / FRET / MOA assay, NRAS Q61K. Format: biochemical. Conditions: NRAS Q61K; Ras-Raf disruption/FRET/MOA assay; read-out: IC50* NRAS Q61K FRET data. A digest of the protocol: (§2)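 TR-FRET disruption of nucleotide-loaded Ras binding to BRAF RBD via compound-driven ternary complex with cyclophilin A. Compound as 10-point 3-fold series from 30 μM final, 3 h at 25° C, then anti-His Eu-W1024 (10 nM) and anti-GST allophycocyanin (50 nM) for 1.5 h. IC50 from decreased FRET ratio versus DMSO.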

A further assay deals with KRAS G12S (Homo sapiens (Human), UniProt P01116+P62937, G12S). The assay can be described thus: Ras-Raf (BRAF RBD) disruption / FRET / MOA assay, KRAS G12S. It counts as biochemical. The conditions noted are these: Ras-Raf disruption/FRET/MOA assay; class symbols; read-out: KRAS G12S FRET data IC50. In a few lines:
as §1

A further assay concerns NCI-H358 (K-Ras G12C). The assay can be described thus: CellTiter-Glo cell viability assay, NCI-H358. It counts as cell-based, human. The conditions noted are these: Homo sapiens, NCI-H358, 120 h, NCI-H358, 5-day treatment; class symbols; read-out: Additional H358 Cell Viability assay data (K-Ras G12C, IC50). A digest of the protocol:
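Viability measured by CellTiter-Glo luminescence on day 5 following direct addition of compound to plated cells. Values expressed as percent of mean DMSO signal; curves fitted with a four-parameter logistic model.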

In a further assay the target is NRAS Q61R (Homo sapiens (Human), UniProt P01111+P62937, Q61R). The assay is described as follows: Ras-Raf (BRAF RBD) disruption / FRET / MOA assay, NRAS Q61R. The conditions noted are these: NRAS Q61R; Ras-Raf disruption/FRET/MOA assay; read-out: IC50* NRAS Q61R FRET data. Format: biochemical. A digest of the protocol:
as §2

NRAS Q61K, sequence (P01111 whole entry Q61K): as the sequence (P01111 whole entry G12C) above, with C12G, Q61K counted along it
NRAS Q61K, sequence (P62937 whole entry): as the sequence (P62937 whole entry) above
KRAS G12D, sequence (P01116-2 other isoform, or with tags, fused parts or gaps G12D): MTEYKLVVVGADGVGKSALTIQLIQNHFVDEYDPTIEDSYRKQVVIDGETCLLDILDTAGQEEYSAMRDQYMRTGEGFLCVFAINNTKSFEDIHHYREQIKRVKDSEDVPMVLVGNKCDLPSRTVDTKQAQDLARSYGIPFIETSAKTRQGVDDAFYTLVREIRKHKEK
KRAS G12D, sequence (P62937 whole entry): as the sequence (P62937 whole entry) above
NRAS Q61R, sequence (P01111 whole entry Q61R): as the sequence (P01111 whole entry G12C) above, with C12G, Q61R counted along it
NRAS Q61R, sequence (P62937 whole entry): as the sequence (P62937 whole entry) above
KRAS G12S, sequence (P01116-2 other isoform, or with tags, fused parts or gaps G12S): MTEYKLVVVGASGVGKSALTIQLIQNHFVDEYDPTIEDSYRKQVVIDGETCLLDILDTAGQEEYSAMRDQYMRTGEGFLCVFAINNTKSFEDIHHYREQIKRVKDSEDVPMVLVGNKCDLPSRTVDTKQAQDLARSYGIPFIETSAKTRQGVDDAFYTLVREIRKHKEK
KRAS G12S, sequence (P62937 whole entry): as the sequence (P62937 whole entry) above

Turning to `C=CC(=O)N1CC[C@H](C(=O)N(C)[C@H](C(=O)N[C@H]2Cc3cc(O)cc(c3)-c3ccc4c(c3)c(c(-c3cnn5c3[C@@H](OC)CCC5)n4CC)CC(C)(C)COC(=O)[C@@H]3CCCN(N3)C2=O)C(C)C)C1` [Example A300], the IC50 on NRAS G12C is below 10 nM; on KRAS G12D it was 0.1 to 1 µM; on K-Ras G12C, below 10 nM; on NRAS Q61K, 0.1 to 1 µM; at KRAS G12S, 10 to 100 nM; with NCI-H358 (K-Ras G12C), below 10 nM. Moreover, the IC50 on NRAS Q61R lay within 100 to 1000 nM.
As for `CCn1c(-c2cccnc2[C@H](C)OC)c2c3cc(ccc31)-c1cccc(c1)C[C@H](NC(=O)C(COC1CN(C(=O)C#CC(C)(C)N(C)C)C1)C(C)C)C(=O)N1CCC[C@H](N1)C(=O)OCC(C)(C)C2` (stereo partly drawn) [Example A316, (2R)-2-(((1-(4-(dimethylamino)-4-methylpent-2-ynoyl)azetidin-3-yl)oxy)methyl)-N-((6^3S,4S)-1^1-ethyl-1^2-(2-((S)-1-methoxyethyl)pyridin-3-yl)-10,10-dimethyl-5,7-dioxo-6^1,6^2,6^3,6^4,6^5,6^6-hexahydro-1^1H-8-oxa-1(5,3)-indola-6(1,3)-pyridazina-2(1,3)-benzenacycloundecaphane-4-yl)-3-methylbutanamide], the IC50 at NRAS G12C is below 10 nM; at KRAS G12D it was above 10 µM; on K-Ras G12C, below 10 nM; on NRAS Q61K, above 10 µM; on KRAS G12S, above 10000 nM; with NCI-H358 (K-Ras G12C), below 10 nM. Moreover, the IC50 at NRAS Q61R is above 10000 nM.
For the compound `C=CC(=O)N1CCC(C(=O)N(C)[C@H](C(=O)N[C@H]2Cc3cc(CF)cc(c3)-c3ccc4c(c3)c(c(-c3cccnc3[C@H](C)OC)n4CC(F)(F)F)CC(C)(C)COC(=O)[C@@H]3CCCN(N3)C2=O)C(C)C)C1` (stereo partly shown) [Example A659], the half-maximal inhibitory concentration (IC50) on NRAS G12C is 10 to 100 nM; on KRAS G12D, 1 to 10 µM; on K-Ras G12C, 10 to 100 nM; on NRAS Q61K, 1 to 10 µM; at KRAS G12S it was 100 to 1000 nM; in the assay on NCI-H358 (K-Ras G12C), below 10 nM. Also, at NRAS Q61R, the IC50 lay in the range of 100 to 1000 nM.
Regarding `CCn1c(-c2cccnc2[C@H](C)OC)c2c3cc(ccc31)N1CCO[C@@H](C[C@H](NC(=O)[C@H](C(C)C)N(C)C(=O)[C@@]3(F)CCC(C(=O)C#CC(C)(C)N4CCC4)C3)C(=O)N3CCC[C@H](N3)C(=O)OCC(C)(C)C2)C1` (stereo partly shown) [Example A726], the IC50 was 10 to 100 nM at NRAS G12C; above 10 µM at KRAS G12D; below 10 nM on K-Ras G12C; above 10 µM on NRAS Q61K; 1000 to 10000 nM at KRAS G12S; below 10 nM in the assay on NCI-H358 (K-Ras G12C). The IC50 on NRAS Q61R is above 10000 nM.

Usually IC50 stands for the point on the concentration scale where inhibition reaches its midpoint.

The values above are taken from patent US11566007B2, “Ras inhibitors” (Revolution Medicines, Inc., priority 2019, dated 2023).
